Measurements from PubChem BioAssay (NCI).
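GI50 is the concentration that inhibits growth by half. Definition used: TGI = concentration required for complete inhibition of growth.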

Assays:
Assay in all cases: DTP human tumour cell line panel, 384-well format
SK-MEL-2 melanoma = system: SK-MEL-2 melanoma
DU-145 prostate = system: DU-145 prostate
BT-549 breast = system: BT-549 breast
ACHN renal = system: ACHN renal
OVCAR-5 ovarian = system: OVCAR-5 ovarian
K-562 leukemia = system: K-562 leukemia
HOP-92 NSCLC = system: HOP-92 NSCLC
CAKI-1 renal = system: CAKI-1 renal
HCT-116 colon = system: HCT-116 colon
SK-OV-3 ovarian = system: SK-OV-3 ovarian
NCI-H460 NSCLC = system: NCI-H460 NSCLC
EKVX NSCLC = system: EKVX NSCLC
HCC-2998 colon = system: HCC-2998 colon
SK-MEL-5 melanoma = system: SK-MEL-5 melanoma
UACC-62 melanoma = system: UACC-62 melanoma
HOP-62 NSCLC = system: HOP-62 NSCLC
PC-3 prostate = system: PC-3 prostate
MDA-MB-231 breast = system: MDA-MB-231 breast
NCI-H23 lung = system: NCI-H23 lung
HL-60(TB) leukemia = system: HL-60(TB) leukemia
SF-539 CNS = system: SF-539 CNS
MALME-3M melanoma = system: MALME-3M melanoma
A549 NSCLC = system: A549 NSCLC
SNB-75 CNS = system: SNB-75 CNS
U251 glioblastoma = system: U251 glioblastoma
OVCAR-4 ovarian = system: OVCAR-4 ovarian
RXF 393 renal = system: RXF 393 renal
LOX IMVI melanoma = system: LOX IMVI melanoma
MDA-MB-468 breast = system: MDA-MB-468 breast
UO-31 renal = system: UO-31 renal

CC(C)C[C@H](NC(=O)CNC(=O)c1cc(Cl)ccc1Cl)B1OC(=O)CC(CC(=O)O)(C(=O)O)O1 (some centres undefined)
GI50 (SK-MEL-2 melanoma): 21.5 nM
TGI (SK-MEL-2 melanoma): 42 nM
GI50 (DU-145 prostate): 44.1 nM
TGI (DU-145 prostate): 233 nM
GI50 (BT-549 breast): 16.1 nM
TGI (BT-549 breast): 30.8 nM
GI50 (ACHN renal): < 20.3 nM
TGI (ACHN renal): 63.7 nM
GI50 (OVCAR-5 ovarian): 50.5 nM
TGI (OVCAR-5 ovarian): 181 nM
GI50 (K-562 leukemia): 17.2 nM
TGI (K-562 leukemia): 35 nM
GI50 (HOP-92 NSCLC): 30 nM
TGI (HOP-92 NSCLC): 71.8 nM
GI50 (CAKI-1 renal): < 20.4 nM
TGI (CAKI-1 renal): 152 nM
GI50 (HCT-116 colon): < 15.9 nM
TGI (HCT-116 colon): 34.7 nM
GI50 (SK-OV-3 ovarian): 204 nM
TGI (SK-OV-3 ovarian): 1550 nM
GI50 (NCI-H460 NSCLC): 92.3 nM
TGI (NCI-H460 NSCLC): 317 nM
GI50 (EKVX NSCLC): 97.4 nM
TGI (EKVX NSCLC): 448 nM
GI50 (HCC-2998 colon): 51.5 nM
TGI (HCC-2998 colon): 101 nM
GI50 (SK-MEL-5 melanoma): < 15.5 nM
TGI (SK-MEL-5 melanoma): 28.1 nM
GI50 (UACC-62 melanoma): 25.6 nM
TGI (UACC-62 melanoma): 66.1 nM
GI50 (HOP-62 NSCLC): 42.3 nM
TGI (HOP-62 NSCLC): 164 nM
GI50 (PC-3 prostate): 48.1 nM
TGI (PC-3 prostate): 113 nM
GI50 (MDA-MB-231 breast): 33.3 nM
TGI (MDA-MB-231 breast): 86.3 nM
GI50 (NCI-H23 lung): 26.8 nM
TGI (NCI-H23 lung): 75.5 nM
GI50 (HL-60(TB) leukemia): < 13.4 nM
TGI (HL-60(TB) leukemia): 19.9 nM
GI50 (SF-539 CNS): 15.1 nM
TGI (SF-539 CNS): 31.3 nM
GI50 (MALME-3M melanoma): < 13.7 nM
TGI (MALME-3M melanoma): 27.5 nM
GI50 (A549 NSCLC): 106 nM
TGI (A549 NSCLC): 1510 nM
GI50 (SNB-75 CNS): 47.4 nM
TGI (SNB-75 CNS): 118 nM
GI50 (U251 glioblastoma): 98.5 nM
TGI (U251 glioblastoma): 472 nM
GI50 (OVCAR-4 ovarian): 53.2 nM
TGI (OVCAR-4 ovarian): 117 nM
GI50 (RXF 393 renal): < 14 nM
TGI (RXF 393 renal): 27.1 nM
GI50 (LOX IMVI melanoma): 33.9 nM
TGI (LOX IMVI melanoma): 125 nM
GI50 (MDA-MB-468 breast): < 14.4 nM
TGI (MDA-MB-468 breast): < 20.6 nM
GI50 (UO-31 renal): 18 nM
